Tests used:
ALS-related cachexia [1] = assay: Study 2: olanzapine treatment of ALS-related cachexia, case report of a patient; type: in vivo, human being
Text: A patient is reported, who developed a slowly-progressive motor neuron syndrome. The patient fulfilled the criteria for ALS. The disease began with atrophy and weakness of the small muscles of the right hand followed by weakness of the proximal muscles of right arm and the opposite upper limb. In the course of 4 years after onset they experienced progressive atrophy and flaccid paresis of the lower limbs resulting in a gait disorder. […] The patient was without dysphagia.
During the course of 12 months, the patient developed an unintended weight loss of 8.5 kg of body weight. The weight loss was associated with fatigue. The patient suffered from diminished appetite. The body mass index (BMI) reduced from 23.3 kg/ m^2 to 20.5 kg/m^2. At the same time the ALS functional rating scale (ALS-FRS revised) changed from 43 to 39 units. Most of the wasting occurred within 6 month before intervention (loss of 6.5 kg of body weight; total body weight of 61.5 kg). For the pharmacological intervention of ALS-related cachexia the medication with olanzapine was initiated. Olanzapine was given orally in the dosage of 5 mg per day. Olanzapine was administered once daily using one tablet of olanzapine 5 mg in the evening. The medication attenuated ALS-related cachexia and wasting. After 2 month of olanzapine treatment the body weight was stabilized (61.0 kg). The loss of BMI was also attenuated (20.3 kg/m^2). […] Residual motor functions were mobilized. […] At the time of this report, the olanzapine dosage was increased to 10 mg per day. Olanzapine was administered twice daily using one tablet of olanzapine 5 mg each in the morning and in the evening. […] The olanzapine treatment was ongoing. Based on reports on olanzapine-related weight gain in patients with psychosis, the target dose of olanzapine for the treatment of ALS-cachexia is 20 mg per day. In the case of persistent ALS-related weight loss, the treatment with 30 mg olanzapine per day is recommended.

ALS-related cachexia [2] = assay: Study: olanzapine treatment of ALS-related cachexia, case report of a patient; type: in vivo, human being
Text: A patient is reported, who developed a slowly-progressive motor neuron syndrome. The patient fulfilled the criteria for definite ALS. The disease began with atrophy and weakness of the small muscles of the left hand followed by weakness of the right distal arm. In the course of 2 years after onset they experienced slowly progressive atrophy and flaccid paresis of the upper limbs with only residual functions in handling articles. After 4 years they developed a gait disorder which progressed to the point were they required a walking-aid. […] The patient was without dysphagia.
During the course of 10 months, the patient developed an unintended weight loss of 12 kg of body weight resulting in fatigue and reduced mobility. The patient suffered from diminished appetite. The body mass index (BMI) was 17.2 kg/m^2 and fulfilled the diagnostic criteria of cachexia. For the pharmacological intervention of ALS-related cachexia the medication with olanzapine was initiated. Olanzapine was given orally in the dosage of 5 mg per day. Olanzapine was administered twice daily using one tablet of olanzapine 2.5 mg each in the morning and in the evening. […] The BMI increased to 18,8 kg/m^2. […] Residual motor functions were mobilized. […] At the time of this report, the olanzapine treatment was ongoing.

ALS-related cachexia [3] = assay: Study 3: olanzapine treatment of ALS-related cachexia, case report of a patient; type: in vivo, human being
Text: A patient is reported, who developed a slowly-progressive motor neuron syndrome. The patient fulfilled the criteria for ALS. The disease began with atrophy and weakness of the proximal left arm followed by weakness of the distal muscles of left upper limb. In the course of 2 years after onset they experienced progressive atrophy and flaccid paresis of the opposite limb with only residual functions in handling articles. After 3 years the disorder progressed to the point that was complete loss of manual functions. The patient developed hypoventilation resulting in ventilatory support using non-invasive intermittent positive pressure ventilation (NIPPV). The patient was without dysphagia.
During the course of 9 months, the patient developed an unintended weight loss of 14.5 kg of body weight. The weight loss was associated with fatigue. The patient suffered from diminished appetite. The body mass index (BMI) reduced from 23.0 kg/ m^2 to 17.5 kg/m^2. Most of the wasting occurred within 5 month before intervention (loss of 8.5 kg of body weight; total body weight reduced from 55 kg to 46.5 kg). For the pharmacological intervention of ALS-related cachexia the medication with olanzapine was initiated. Olanzapine was given orally in the dosage of 5 mg per day. Olanzapine was administered once daily using one tablet of olanzapine 5 mg in the evening. After 4 weeks of treatment, olanzapine dosage was increased to 10 mg per day. Olanzapine was administered twice daily using one tablet of olanzapine 5 mg each in the morning and in the evening. The medication attenuated ALS-related cachexia and wasting. After 2 month of olanzapine treatment the body weight was stabilized (45.5 kg). The loss of BMI was also attenuated (17.1 kg/m^2). The nutritional state and the general strength improved. […] The olanzapine treatment was ongoing. Based on reports on olanzapine-related weight gain in patients with psychosis, the target dose of olanzapine for the treatment of ALS-cachexia is 20 mg per day. In the case of persistent ALS-related weight loss, the treatment with 30 mg olanzapine per day is recommended.

ALS = ALS patients; background statement on the approved therapy; cited from earlier work

Structure (SMILES)	BMI (ALS-related cachexia [1]; after 2 month of olanzapine 5 mg per day orally, BMI 20.5 kg/m^2 before intervention) [kg/m^2]	body weight (ALS-related cachexia [1]; after 2 month of olanzapine 5 mg per day orally, total body weight 61.5 kg before intervention) [kg]	adverse events (ALS-related cachexia [1]; olanzapine orally 5 mg per day, later increased to 10 mg per day)	adverse events (ALS-related cachexia [2]; olanzapine orally 5 mg per day)	weight gain (ALS-related cachexia [2]; olanzapine orally 5 mg per day (2.5 mg twice daily), within the course of 8 weeks, patient, BMI 17.2 kg/m^2 before treatment) [kg]	BMI (ALS-related cachexia [2]; olanzapine orally 5 mg per day, after treatment (8 weeks), BMI before treatment 17.2 kg/m^2)	body weight (ALS-related cachexia [3]; after 2 month of olanzapine (5 mg per day, after 4 weeks 10 mg per day, orally), 46.5 kg before intervention) [kg]	BMI (ALS-related cachexia [3]; after 2 month of olanzapine (5 mg per day, after 4 weeks 10 mg per day, orally), BMI 17.5 kg/m^2 before intervention) [kg/m^2]	adverse events (ALS-related cachexia [3]; olanzapine orally 5 mg per day, after 4 weeks 10 mg per day)	prolonging an ALS-patient's lifetime (ALS)
Cc1cc2c(s1)Nc1ccccc1N=C2N1CCN(C)CC1 [olanzapine]	20.3	61.0	not associated with adverse events	not associated with adverse events	6	18,8 kg/m^2	45.5	17.1	not associated with adverse events	
Nc1nc2ccc(OC(F)(F)F)cc2s1 [Riluzole]										1.5-2.5 months

Reference: patent EP1884243A1, “Use of an antipsychotic drug for the treatment of ALS-associated cachexia” (Charité - Universitätsmedizin Berlin, priority 2006, dated 2008)
